Test results from patent US20230242540A1, “COMPOUNDS HAVING ANTICANCER ACTIVITY” (The Trustees of Princeton University, priority 2020, published 2023).

Experiments:
[1] = system: HCT116 cell line; experiment: Cell growth inhibition by resazurin, HCT116; type: cell-based; conditions: HCT116, 4 days, with or without hypoxanthine and thymidine supplement, FIG. 1A
Experimental: (§1) Cells of (a) HCT116 and (b) Panc1 cell lines were each seeded in 96-well plates at the density of 3000/well in 80 μL of DMEM media supplemented with 10 vol % dialyzed FBS. The next day, 10 μL of media with or without hypoxanthine (1 mM) and thymidine (160 μM) was added to each well. 10 μL of Compound 1 diluted in media as 10× stock of desired concentration was also added. Relative cell number is measured by resazurin right before and 4 days after the addition of Compound 1. Namely, resazurin dissolved in phosphate-buffered saline (PBS) was added to each well to a final concentration of 10 μg/mL followed by 1-hour incubation at 37° C. Fluorescence (excitation 550 nm, emission 590 nm) is then measured by a microplate reader. […] Inhibition of growth in both cancer cell lines was achieved via disruption of purine and thymine synthesis.

[2] = system: Panc1 cell line; experiment: Cell growth inhibition by resazurin, Panc1; type: cell-based; conditions: Panc1, 4 days, with or without hypoxanthine and thymidine supplement, FIG. 1B
Experimental: as §1

[3] = system: isogenic CHO cell line with low RFC expression; experiment: Folate competition, IC50 in CHO cells with low RFC expression; type: cell-based; conditions: Cricetulus griseus, folic acid free RPMI, 10 vol. % dialyzed FBS, 25 nM 5-formyl THF
Experimental: (§2) Compound 1 was tested relative to pemetrexed and methotrexate against two isogenic CHO cell lines with low and high RFC expression levels. […] Table II provides the IC50 values for Compound 1, Pemetrexed and Methotrexate.

[4] = system: isogenic CHO cell line with high RFC expression; experiment: Folate competition, IC50 in CHO cells with high RFC expression; type: cell-based; conditions: Cricetulus griseus, folic acid free RPMI, 10 vol. % dialyzed FBS, 25 nM 5-formyl THF
Experimental: as §2

[5] = system: KPC pancreatic ductal adenocarcinoma allograft; experiment: KPC pancreatic ductal adenocarcinoma allograft; type: in vivo, male C57BL/6 mice; conditions: 5 mg/kg intraperitoneally once daily
Experimental: Tumor harvested from K-ras^LSL.G12D/+; Trp53^R172H/+; Pdx-1-Cre (KPC) mice was passaged at the flank of C57BL/6 subcutaneously. To initiate allografts, subcutaneous tumors were harvested and minced in DMEM media, mixed with equal volume of Matrigel basement membrane matrix (Corning 354234), and injected subcutaneously at the flank of male C57BL/6 mice. Tumors were measured twice per week. Once the average tumor volume reaches 100 mm^3, Compound 1 (5 mg/kg body weight, dissolved in 10% 2-hydroxypropyl-β-cyclodextrin) and vehicle (10% 2-hydroxypropyl-β-cyclodextrin, 10 mL/kg body weight) were injected intraperitoneally once daily, with continued tumor monitoring. At the end of experiment, mice were euthanized by cervical dislocation after being fasted for 6 hr. Tumors are collected into aluminum foil, clamped by a Wollenberg clamp pre-cooled in liquid N2, and kept cold in liquid N2.
To extract metabolites from tumor samples, tumors were first ground by a Cryomill (Retsch). About 10 mg of ground tissue is measured and extracted by extraction buffer (acetonitrile:methanol:H2O=2:2:1, then supplemented with 0.5 vol % formic acid) at the ratio of 370 μL buffer per 10 mg tissue. […] Metabolite levels were measured by Q Exactive Plus Hybrid Quadrupole-Orbitrap coupled with […] (HILIC) operating in the negative ionization mode.

[6] = system: HCT116 colorectal carcinoma xenograft; experiment: HCT116 colorectal carcinoma xenograft; type: in vivo, female  mice; conditions: 5 mg/kg intraperitoneally once daily
[7] = system: MC38 mouse colon adenocarcinoma allograft; experiment: MC38 mouse colon adenocarcinoma allograft; type: in vivo, female C57BL/6 mice; conditions: 5 mg/kg intraperitoneally once daily, FIG. 5A
Experimental: To initiate allografts, 2×10^6 MC38 cells were injected subcutaneously at the flank of female C57BL/6 mice. Once the average tumor volume reaches 50 mm^3, IRS-17 (5 mg/kg body weight, dissolved in 10% 2-hydroxypropyl-β-cyclodextrin) and vehicle (10% 2-hydroxypropyl-β-cyclodextrin, 10 mL/kg body weight) are injected intraperitoneally once daily. After the final dose, mice were fasted for 12 hr. Then blood was collected by tail snip into a tube without anticoagulants. Serum was collected by taking the supernatant after centrifugation. Mice were then euthanized by cervical dislocation, and tumors are harvested and frozen in liquid N2. Tumor metabolites were extracted and measured as previously described in C. To extract serum metabolites, 2.5 μL of serum was added into 80 μL of methanol. Samples were centrifuged (16000 g for 10 min) at 4° C., and supernatant is collected.

| SMILES | cell growth [1] | cell growth [2] | IC50 [3] | IC50 [4] | change in tumor volume over time ([5]; FIG. 3A) | tumor doubling time ([5]; FIG. 3B) | change in tumor volume over time ([6]; FIG. 4A) | tumor doubling time ([6]; FIG. 4B) | tumor volume over the treatment period [7] |
| --- | --- | --- | --- | --- | --- | --- | --- | --- | --- |
| C#Cc1ccc(Cn2ccc3c4c(N)nc(N)nc4ccc32)cc1 [Compound 1] | inhibited cell growth | inhibited cell growth | < 0.002 nM | 0.06 nM | substantially inhibited tumor growth | protracted tumor doubling time | substantially inhibited tumor growth | protracted tumor doubling time | some reduction in tumor volume |
| CN(Cc1cnc2nc(N)nc(N)c2n1)c1ccc(C(=O)N[C@@H](CCC(=O)O)C(=O)O)cc1 [Methotrexate] | – | – | 4000 nM | 480 nM | – | – | – | – | – |
| Nc1nc2[nH]cc(CCc3ccc(C(=O)N[C@@H](CCC(=O)O)C(=O)O)cc3)c2c(=O)[nH]1 [Pemetrexed] | – | – | 800 nM | 150 nM | – | – | – | – | – |
